From patent publication US8598190B2, “3H-imidazo [4, 5-C] pyridine-6-carboxamides as anti-inflammatory agents” (Boehringer Ingelheim International GmbH, priority 2008, dated 2013) come the findings set out here.

A word on the inhibition: it is the change of the read-out against control, counted positive when it falls.

Molecules are shown by their SMILES.

The target in this test is T1, recombinant human mPGES-1 (Homo sapiens, UniProt O14684).
T1 construct: made in house; host or cells: Rosetta E. coli (microsomal/membrane fraction)
T1 sequence (O14684 1-152): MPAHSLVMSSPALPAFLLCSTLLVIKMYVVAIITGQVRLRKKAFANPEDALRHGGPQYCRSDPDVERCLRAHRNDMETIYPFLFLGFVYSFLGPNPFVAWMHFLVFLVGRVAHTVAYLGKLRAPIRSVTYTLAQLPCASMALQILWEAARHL
The test can be described thus: mPGES-1 inhibition test (microsomes, HTRF detection of PGE2). The class given is biochemical. The procedure: Microsomes from Rosetta E. coli bacteria expressing recombinant human mPGES-1 is dissolved in 0.1 M KPi pH 7.4 buffer containing 2.5 mM GSH. 50 μl of the enzyme is subsequently dispensed in a 384-well plate. 0.5 μl of the inhibitor dissolved in DMSO at is thereafter added to each well and incubated for 25 minutes at room temperature.
Subsequently, 2 μl of PGH2 dissolved in an appropriate solvent is added to each well and after one minute the acidified stop solution containing FeCl2 is added. 4 μl of the total volume is transferred to a separate plate and diluted 750-fold in two separate steps before HTRF detection of PGE2.
The HTRf detection is performed by the use of a commercially available kit from CisBio essentially according to the manufacturer's protocol. Briefly, 10 μl of the diluted sample is transferred to a white 384-well plate. 5 μl of d2 and 5 μl Eu3+-Cryptate labeled anti-PGE2 is added to each well containing samples by the use of a Multidrop. The plate is covered with a plastic self-adhesive film, centrifuged at 1200 rpm for 1 minute and subsequently stored at +4° C. over night.
After over night incubation the fluorescence is measured by the use of an appropriate microplate reader. The fluorescence of europium cryptate, and d2 are measured using the following excitation and emission wavelength, europium cryptate: λmax^ex=307 nm, λmax^em=620 nm and d2: λmax^ex=620 nm, λmax^em=665 nm), respectively. The extent of the specific FRET is measured as a ratio of the emission intensity at 665 nm vs. that at 620 nm. A standard curve using synthetic PGE2 is used to quantify the amount of PGE2 in unknown samples.
Background: Time-resolved FRET reads energy transfer from a long-lived donor to a nearby acceptor.
For the compound `Cn1c(Nc2c(F)cccc2Cl)nc2cc(C(=O)NCc3ncccc3C(F)(F)F)ncc21` [Example 504, 2-(2-Chloro-6-fluorophenylamino)-3-methyl-N-((3-trifluoromethyl-pyridin-2-yl)-methyl)-3H-imidazo[4,5-c]pyridine-6-carboxamide], the inhibition at 10 µM stood at 100%.

Consider `Cc1cc(C(F)(F)F)cc(NC(=O)c2cc3[nH]c(Nc4c(Cl)cncc4Cl)nc3cn2)n1` [Example 733, 2-(3,5-Dichloro-pyridin-4-yl-amino)-N-(6-methyl-4-trifluoromethyl-pyridin-2-yl)-1H-imidazo[4,5-c]pyridine-6-carboxamide], for which the inhibition at 10 µM was 99%.

With `Cn1c(Nc2c(Cl)cccc2Cl)nc2cc(C(=O)NC3CCC(C)(C)CC3)ncc21` [Example 406, 2-(2,6-Dichlorophenylamino)-N-(4,4-dimethylcyclohexyl)-3-methyl-3H-imidazo[4,5-c]pyridine-6-carboxamide], the inhibition at 10 µM stood at 100%.

Turning to `Cn1c(Nc2c(F)cccc2Cl)nc2cc(C(=O)NC3CCC(C)(C)CC3)ncc21` [Example 389, 2-(2-Chloro-6-fluorophenylamino)-N-(4,4-dimethylcyclohexyl)-3-methyl-3H-imidazo[4,5-c]-pyridine-6-carboxamide], the inhibition at 10 µM was 100%.

As for `Cn1c(Nc2c(F)cccc2Cl)nc2cc(C(=O)NCc3ncccc3C3CC3)ncc21` [Example 522, 2-(2-Chloro-6-fluorophenylamino)-N-((3-cyclopropylpyridin-2-yl)-methyl)-3-methyl-3H-imidazo[4,5-c]pyridine-6-carboxamide], the inhibition at 10 µM is 100%.

In the case of `O=C(Nc1cc(C(F)(F)F)ccn1)c1cc2[nH]c(Nc3c(Cl)cccc3Cl)nc2cn1` [Example 414, 2-(2,6-Dichlorophenylamino)-N-(4-trifluoromethyl-pyridin-2-yl)-1H-imidazo[4,5-c]pyridine-6-carboxamide], the inhibition at 10 µM was 100%.

On to `O=C(Nc1cc(C2CC2)ccn1)c1cc2[nH]c(Nc3c(Cl)cccc3Cl)nc2cn1` [Example 445, N-(4-Cyclopropylpyridin-2-yl)-2-(2,6-dichlorophenylamino)-1H-imidazo[4,5-c]-pyridine-6-carboxamide], for which the inhibition at 10 µM was 98%.

For the compound `O=C(NC1CCC2(CC1)CC2)c1cc2[nH]c(Nc3c(Cl)cccc3Cl)nc2cn1` [Example 451, 2-(2,6-Dichlorophenylamino)-N-(spiro[2.5]octan-6-yl)-1H-imidazo[4,5-c]pyridine-6-carboxamide], the inhibition at 10 µM came out at 99%.

For `Cn1c(Nc2c(Cl)cncc2Cl)nc2cc(C(=O)NC3CCC(C)(C)CC3)ncc21` [Example 478, 2-(3,5-Dichloropyridin-4-ylamino)-N-(4,4-dimethylcyclohexyl)-3-methyl-3H-imidazo[4,5-c]pyridine-6-carboxamide], the inhibition at 10 µM was 100%.
